Reference: publication PMC6254723, “Synthesis and Pharmacological Screening of Several Aroyl and Heteroaroyl Selenylacetic Acid Derivatives as Cytotoxic and Antiproliferative Agents” (Molecules, 2009)
pIC50: −log10 of the molar value. Like-named read-outs stand apart in the source and are kept apart here.

Assays:
PC-3 cell line = test: MTT cytotoxicity assay in PC-3
Description: The results are tabulated as IC50 values. All experiments were independently performed at least three times and the values were calculated after 72 hours exposure (drug concentrations of 2, 5, 7 and 10 μM).
PC-3 cells were seeded in 96-well plates (Millipore, Eschborn, Germany) at a density of 5 × 10^3 cells per well. The samples were incubated at 37 °C under 5% CO2 overnight prior to the addition of the compounds. Compounds were diluted in complete medium. After 3 days of incubation, 10 μL MTT solution (5 mg/mL in PBS) was added to the cells in each well and these were stored for an additional 4 h at 37 °C. […] The percentage of viable cells was calculated to obtain IC50-values.
PC-3 are human tumorigenic and metastatic prostate cancer cells and these were obtained from American Type Culture Collection (ATCC, Manassas, VA, USA) (passage 36).

CCRF-CEM = test: MTT cytotoxicity assay (NCI) in CCRF-CEM; format: cell-based, human; details: 72 h; for TGI CCRF-CEM: dose that completely inhibits cell growth; for LD50 CCRF-CEM: dose that kills 50% of cells; for GI50: Homo sapiens, CCRF-CEM, dose that inhibits 50% of cell growth, read-out: GI50 CCRF-CEM
Description: (§1) In order to investigate the effect of the active compounds in more detail, we examined the activity on proliferation in other cancer cell lines. […] Tests were carried out in the Department of Health Science, Public University of Navarra against a panel of four human tumour cell lines: lung (HTB-54), colon (HT-29), leukaemia (CCRF-CEM) and breast adenocarcinoma (MCF-7). Cytotoxicity assays were performed based on the reactivity of MTT [3-(4,5-dimethylthiazol-2-yl)-2,5-diphenyl-tetrazolium bromide], as described by NCI [39]. […] Doxorubicin was used as a control. As guidance with regard to selectivity, all of the compounds were further examined for toxicity in a mammary gland cell culture derived from non-malignant cells (184B5). Drug concentrations ranged from 0.01 to 100 μM.
(§2) The cytotoxic effects of each substance were tested at five different doses between 0.01 and 100 μM. Each substance was initially dissolved in DMSO at a concentration of 0.1 M, and serial dilutions were prepared using culture medium. The plates with cells from the different lines, to which medium containing the substance under test were added, were incubated for 72 h at 37 °C in a humidified atmosphere containing 5% CO2. European Collection of Cell Cultures (ECACC) or American Type Culture Collection (ATCC) provided human tumour cell lines. Four cell lines were used: one human lymphocytic leukemia (CCRF-CEM) and three human solid tumours, one colon carcinoma (HT-29), one lung carcinoma (HTB-54) and one breast adenocarcinoma (MCF-7). CCRF-CEM, HT-29 and HTB-54 cells were grown in RPMI 1640 medium (Life Technologies, Carlsbad, CA, USA) supplemented with 10% foetal calf serum, 2 mM L-glutamine, 100 units/mL penicillin, 100 μg/mL streptomycin and 10 mM HEPES buffer (pH = 7.4). MCF-7 cells were grown in EMEM medium (Clonetics) supplemented with 10% foetal calf serum, 2 mM L-glutamine, 100 units/mL penicillin and 100 μg/mL streptomycin. 184B5 cells were grown Hams F-12/DMEM (50:50) supplemented as described by Li et al.. Cytotoxicity was then determined by the MTT method. […] Data were obtained from at least three independent experiments performed in quadruplicate.

HT-29 = test: MTT cytotoxicity assay (NCI) in HT-29; format: cell-based, human; details: 72 h
Description: as §1, §2

HTB-54 = test: MTT cytotoxicity assay (NCI) in HTB-54; format: cell-based, human; details: 72 h; for TGI HTB-54: dose that completely inhibits cell growth; for LD50 HTB-54: dose that kills 50% of cells; for GI50: Homo sapiens, HTB-54, dose that inhibits 50% of cell growth, read-out: GI50 HTB-54
Description: as §1, §2

[1] = MTT toxicity assay in non-malignant mammary gland cells 184B5; format: cell-based; details: human
Description: as §1, §2

184B5 = test: as above; format: cell-based
Description: as §1, §2

MCF-7 [2] = test: MTT cytotoxicity assay (NCI) in MCF-7; format: cell-based, human; details: 72 h; for TGI MCF-7: dose that completely inhibits cell growth; for LD50 MCF-7: dose that kills 50% of cells; for GI50: Homo sapiens, MCF7, dose that inhibits 50% of cell growth, read-out: GI50 MCF-7
Description: as §1, §2

MCF-7 [3] = details: comparison drugs, MCF-7 by context; no reference given; cited from earlier work
[4] = Homo sapiens, PC-3, 72 h, read-out: IC50 PC-3 cell line
[5] = Homo sapiens, PC-3, read-out: IC50 (cytotoxic activity in PC-3 cell line)
[6] = 72 h exposure, MTT, drug concentrations 2, 5, 7 and 10 μM, NE = no effect is observed

Question: With `O=C(O)C[Se]C(=O)c1ccccc1Cl` [Compound 8, (2-chlorobenzoylselenyl)acetic acid] as the compound, how does the pIC50 (PC-3 cell line; [4]) read?
Answer: < 5.00

Question: What about the pIC50 (PC-3 cell line; [5]) of the same compound?
Answer: < 5.00

Question: What does the source list for `CCCSc1ncccc1C(=O)[Se]CC(=O)O` [Compound 22, (3-(2-propylthio)pyridoylselenyl)acetic acid]?
Answer: pIC50 (PC-3 cell line; [4]): < 5.00; pIC50 (PC-3 cell line; [5]): < 5.00

Question: Which “TGI CCRF-CEM” value (CCRF-CEM) does the source give for `N#Cc1ccc(C(=O)[Se]CC(=O)O)cc1` [Compound 2, (4-cyanobenzoylselenyl)acetic acid] here?
Answer: >100 µM

Question: And the “LD50 CCRF-CEM” value (CCRF-CEM)?
Answer: >100 µM

Question: What about the GI50 (CCRF-CEM) of the same compound?
Answer: > 100 µM

Question: What about the pIC50 (PC-3 cell line; [4]) of the same compound?
Answer: 5.00

Question: And the pIC50 (PC-3 cell line; [5])?
Answer: 5.00

Question: What about the “TGI HT-29” value (HT-29; dose that completely inhibits cell growth) of the same compound?
Answer: 51.95 µM

Question: What about the “LD50 HT-29” value (HT-29; dose that kills 50% of cells) of the same compound?
Answer: >100 µM

Question: And the GI50 (HT-29; Homo sapiens, HT-29, dose that inhibits 50% of cell growth, read-out: GI50 HT-29)?
Answer: 8.95 µM

Question: And the “TGI HTB-54” value (HTB-54)?
Answer: 9.91 µM

Question: And the “LD50 HTB-54” value (HTB-54)?
Answer: >100 µM

Question: What about the GI50 (HTB-54) of the same compound?
Answer: 1.9 µM

Question: And the GI50 at 72 h [1]?
Answer: 2.29 µM

Question: What about the “LD50 184B5” value (184B5; 72 h, non-malignant cells, dose that kills 50% of cells) of the same compound?
Answer: 78.91 µM

Question: And the “selectivity index (184B5/MCF-7 LD50 ratio)” value (184B5; LD50 in 184B5 divided by LD50 in MCF-7)?
Answer: 3.4

Question: What about the “TGI 184B5” value (184B5; human, 72 h) of the same compound?
Answer: 20.14 µM

Question: And the “TGI MCF-7” value (MCF-7 [2])?
Answer: 6.54 µM

Question: And the “LD50 MCF-7” value (MCF-7 [2])?
Answer: 23.12 µM

Question: And the GI50 (MCF-7 [2])?
Answer: 2.64 µM

Question: With `O=C(O)C[Se]C(=O)C(c1ccccc1)c1ccccc1` [Compound 18, (diphenylacetylselenyl)acetic acid] as the compound, how does the pIC50 (PC-3 cell line; [4]) read?
Answer: < 5.00

Question: With `O=C(O)C[Se]C(=O)c1ccc(C(F)(F)F)cc1` [Compound 3, (4-trifluoromethylbenzoylselenyl)acetic acid] as the compound, how does the pIC50 (PC-3 cell line; [4]) read?
Answer: < 5.00

Question: What about the pIC50 (PC-3 cell line; [5]) of the same compound?
Answer: < 5.00

Question: With `COc1cc(C(=O)[Se]CC(=O)O)cc(OC)c1OC` [Compound 15, (3,4,5-trimethoxybenzoylselenyl)acetic acid] as the compound, how does the “IC50 PC-3 cell line” value (PC-3 cell line; [6]) read?
Answer: suppression of the antitumour activity

Question: And the pIC50 (PC-3 cell line; [4])?
Answer: < 5.00

Question: And the pIC50 (PC-3 cell line; [5])?
Answer: < 5.00

Question: Which “IC50 PC-3 cell line” value (PC-3 cell line; [6]) does the source give for “(4-methoxyphenylselenyl)acetic acid [Compound 7]” here?
Answer: inactive

Question: What about the pIC50 (PC-3 cell line; read-out: IC50 (cytotoxic activity in PC-3 cell line), as repeated in Table 5, NE = no effect) of the same compound?
Answer: < 5.00

Question: And the pIC50 (PC-3 cell line; read-out: IC50 PC-3 cell line, 72 h exposure, MTT, drug concentrations 2, 5, 7 and 10 μM, NE = no effect is observed)?
Answer: < 5.00

Question: With `O=C(O)C[Se]C(=O)c1ccc2c(c1)OCO2` [Compound 16, (3,4-methylenedioxy-benzoylselenyl) acetic acid] as the compound, how does the pIC50 (PC-3 cell line; [4]) read?
Answer: < 5.00

Question: What about the pIC50 (PC-3 cell line; [5]) of the same compound?
Answer: < 5.00

Question: Which GI50 (MCF-7 [3]) does the source give for `CC(=O)O[C@H]1C(=O)[C@@]2(C)[C@H]([C@H](OC(=O)c3ccccc3)[C@]3(O)C[C@H](OC(=O)[C@H](O)[C@@H](NC(=O)c4ccccc4)c4ccccc4)C(C)=C1C3(C)C)[C@]1(OC(C)=O)CO[C@@H]1C[C@@H]2O` [paclitaxel] here?
Answer: 0.01 µM

Question: And the TGI (MCF-7 [3])?
Answer: 20 ± 1.9 µM

Question: With `O=C(O)C[Se]C(=O)c1cnccn1` [Compound 24, (pyrazinoylselenyl)acetic acid] as the compound, how does the pIC50 (PC-3 cell line; [4]) read?
Answer: < 5.00

Question: And the pIC50 (PC-3 cell line; [5])?
Answer: < 5.00

Question: For `COc1cccc2c1C(=O)c1c(O)c3c(c(O)c1C2=O)C[C@@](O)(C(=O)CO)C[C@@H]3O[C@H]1C[C@H](N)[C@H](O)[C@H](C)O1` [Doxorub., doxorubicin, reference compound], which “TGI CCRF-CEM” value (CCRF-CEM) is on record?
Answer: 0.071 µM

Question: And the “LD50 CCRF-CEM” value (CCRF-CEM)?
Answer: 0.29 µM

Question: And the GI50 (CCRF-CEM)?
Answer: 0.033 µM

Question: What about the “TGI HTB-54” value (HTB-54) of the same compound?
Answer: 1.25 µM

Question: What about the “LD50 HTB-54” value (HTB-54) of the same compound?
Answer: 3.45 µM

Question: And the GI50 (HTB-54)?
Answer: < 0.01 µM

Question: What about the “TGI MCF-7” value (MCF-7 [2]) of the same compound?
Answer: >100 µM

Question: And the “LD50 MCF-7” value (MCF-7 [2])?
Answer: >100 µM

Question: What about the GI50 (MCF-7 [2]) of the same compound?
Answer: 0.88 µM

Question: With `O=C(O)C[Se]C(=O)c1ccc2ccccc2c1` [Compound 17, (2-naphthoylselenyl)acetic acid] as the compound, how does the pIC50 (PC-3 cell line; [4]) read?
Answer: < 5.00

Question: With `O=C(O)C[Se]C(=O)c1cccs1` [Compound 23, (2-thienoylselenyl)-acetic acid] as the compound, how does the pIC50 (PC-3 cell line; [4]) read?
Answer: < 5.00

Question: And the pIC50 (PC-3 cell line; [5])?
Answer: < 5.00
